# Experimental data reported in patent US20050164951A1, “Inhibitors for the soluble epoxide hydrolase” (The Regents of the University of California, priority 2003, published 2005).
# Read-outs that look alike come from different tables or passages of the source.
# What was measured:
# [1] = target: T1, human sEH (Homo sapiens, UniProt P34913); assay: Inhibition of recombinant human sEH, IC50 assay with 4-nitrophenyl-trans-2,3-epoxy-3-phenylpropyl carbonate as substrate; type: biochemical; conditions: for IC90: 0.24 μM enzyme
# T1 construct: made in house; host or cells: baculovirus expression system
# T1 sequence (P34913 1-555): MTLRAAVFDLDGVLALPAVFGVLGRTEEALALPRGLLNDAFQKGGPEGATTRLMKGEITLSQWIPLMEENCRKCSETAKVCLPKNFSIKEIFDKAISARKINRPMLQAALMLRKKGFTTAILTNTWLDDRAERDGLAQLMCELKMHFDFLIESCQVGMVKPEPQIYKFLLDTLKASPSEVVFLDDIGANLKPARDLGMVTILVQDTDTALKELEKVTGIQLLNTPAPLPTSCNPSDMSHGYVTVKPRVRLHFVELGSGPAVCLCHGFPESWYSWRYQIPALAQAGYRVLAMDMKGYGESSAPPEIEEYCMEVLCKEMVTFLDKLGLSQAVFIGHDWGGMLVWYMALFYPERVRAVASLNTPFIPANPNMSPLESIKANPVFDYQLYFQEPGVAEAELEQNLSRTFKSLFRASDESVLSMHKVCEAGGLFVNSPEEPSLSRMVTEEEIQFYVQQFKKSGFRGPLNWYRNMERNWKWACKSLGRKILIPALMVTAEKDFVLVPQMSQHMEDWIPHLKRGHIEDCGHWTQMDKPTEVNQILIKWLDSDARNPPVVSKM
# Experimental: (§1) Assays were performed in triplicate. […] The curve was generated from at least three separate runs, each in triplicate, to obtain the standard deviation (SD) given in Table 1 thru Table 4.
# [2] = target: T2, mouse sEH (Mus musculus, UniProt P34914); assay: Inhibition of recombinant mouse sEH, IC50 assay with 4-nitrophenyl-trans-2,3-epoxy-3-phenylpropyl carbonate as substrate; type: biochemical
# T2 construct: made in house; host or cells: baculovirus expression system
# T2 sequence (P34914 1-554): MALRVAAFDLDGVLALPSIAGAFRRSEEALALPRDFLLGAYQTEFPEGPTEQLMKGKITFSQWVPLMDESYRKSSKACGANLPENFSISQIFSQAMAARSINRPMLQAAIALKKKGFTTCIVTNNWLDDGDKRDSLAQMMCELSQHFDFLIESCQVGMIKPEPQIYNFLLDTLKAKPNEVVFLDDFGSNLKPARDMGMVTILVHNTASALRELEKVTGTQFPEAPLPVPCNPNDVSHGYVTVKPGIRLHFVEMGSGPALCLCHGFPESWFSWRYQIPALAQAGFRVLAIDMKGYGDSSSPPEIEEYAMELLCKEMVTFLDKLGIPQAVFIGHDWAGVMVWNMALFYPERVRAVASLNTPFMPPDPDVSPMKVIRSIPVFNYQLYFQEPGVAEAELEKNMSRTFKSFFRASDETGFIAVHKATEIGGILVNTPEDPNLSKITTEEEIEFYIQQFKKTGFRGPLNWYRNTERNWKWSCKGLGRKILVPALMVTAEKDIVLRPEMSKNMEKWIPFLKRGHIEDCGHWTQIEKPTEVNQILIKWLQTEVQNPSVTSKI
# Experimental: as §1
# [3] = Tables 17a and b, read-out: IC50 (μM) Human sEH
# [4] = Tables 17a and b, read-out: IC50 (μM) Mouse sEH
# [5] = Table 5, 5 min preincubation, pH 7.4, 30° C., means ± SD
# [6] = Table 5, […] enzyme, 5 min preincubation, pH 7.4, 30° C., means ± SD, read-out: Human sEH IC50
# [7] = Table 5, 0.12 μM enzyme, 5 min preincubation, pH 7.4, 30° C., means ± SD
# [8] = Table 5, […] enzyme, 5 min preincubation, pH 7.4, 30° C., means ± SD, read-out: Mouse sEH IC50
# [9] = Table 1, […] enzyme, 5 min preincubation, pH 7.4, 30° C., [S] = 40 μM, means ± SD of three experiments, read-out: IC50 (μM) Human sEH
# [10] = Table 9, established protocols, read-out: IC50 (μM) Human sEH
# [11] = Table 9, established protocols, read-out: IC50 (μM) Mouse sEH
Structure (SMILES),"IC50 [1, 3] [µM]","IC50 [2, 4] [µM]",other results
CCOC(=O)CCCCCCOCCCCCNC(=O)NC12CC3CC(CC(C3)C1)C2 [Compound 1006],0.11 ± 0.01,0.05 ± 0.01,"IC50 ([1]; Table 7, established protocols, read-out: IC50 (μM) Human sEH): 0.11 ± 0.01 µM; IC50 ([2]; Table 7, established protocols, read-out: IC50 (μM) Mouse sEH): 0.05 ± 0.01 µM"
CCOC(=O)CCCOC(=O)CCCNC(=O)NC12CC3CC(CC(C3)C1)C2 [Compound 858],,,"IC90 [1, 5]: 5000 ± 100 nM; IC50 [1, 6]: 0.12 ± 0.01 µM; IC90 [2, 7]: 160 ± 10 nM; IC50 [2, 8]: 0.05 ± 0.01 µM"
CCOC(=O)CCCCCCCCCOC(=O)CCCNC(=O)NC12CC3CC(CC(C3)C1)C2 [Compound 880],,,"IC90 [1, 5]: 680 ± 10 nM; IC50 [1, 6]: 0.1 ± 0.01 µM; IC90 [2, 7]: 260 ± 30 nM; IC50 [2, 8]: 0.05 ± 0.01 µM"
CCCCC(CO)NC(=O)NC1CCCCC1 (stereo not drawn) [Compound 977],0.25 ± 0.01,0.1 ± 0.01,
"O=C(O)CCCNC(=O)NC1CCCCC1 [Compound 632, 4-(3-Cyclohexyl-ureido)-butyric acid]",,,"IC50 [1, 9]: > 500 µM; IC50 [2]: > 500 µM"
CCOC(=O)c1ccc(C(OC(=O)CCCNC(=O)NC23CC4CC(CC(C4)C2)C3)c2ccccc2)cc1 (stereo not drawn) [Compound 949],0.1 ± 0.01,0.05 ± 0.01,
CCOC(=O)CCCCCCCCCCCOC(=O)CCCNC(=O)NC12CC3CC(CC(C3)C1)C2 [Compound 882],,,"IC90 [1, 5]: 1800 ± 200 nM; IC50 [1, 6]: 0.1 ± 0.01 µM; IC90 [2, 7]: 630 ± 40 nM; IC50 [2, 8]: 0.05 ± 0.01 µM"
O=C(Cc1ccccc1)NC1CCCCC1 [Compound 968],14 ± 0.01,2.4 ± 0.01,
CCOC(=O)CCCCCCOC1CCC(NC(=O)NC23CC4CC(CC(C4)C2)C3)CC1 (stereo not drawn) [Compound 961],,,"IC50 [1, 10]: 0.1 ± 0.01 µM; IC50 [2, 11]: 0.05 ± 0.01 µM"
"CCCCCNC(=O)CCCNC(=O)Nc1cccc(Cl)c1 [Compound 768, 1-(3-chlorophenyl)-3-(3-pentylaminocarbonylpropyl)urea]",,,"IC50 ([1]; Table 3, […] enzyme, 5 min preincubation, pH 7.4, 30° C., means ± SD, read-out: IC50 (μM) Human sEH): 32 ± 0.8 µM; IC50 ([2]; Table 3, […] enzyme, 5 min preincubation, pH 7.4, 30° C., means ± SD, read-out: IC50 (μM) Mouse sEH): 7.2 ± 0.9 µM"
CC(C)=CCCC(C)CCOCCCCCNC(=O)NC12CC3CC(CC(C3)C1)C2 (stereo not drawn) [Compound 915],0.12 ± 0.01,0.05 ± 0.01,
CCCCCNC(=O)NC(CO)c1ccccc1 (stereo not drawn) [Compound 995],22.1 ± 0.01,11 ± 0.01,
O=C(CC1CCCCC1)NCCc1ccccc1 [Compound 993],4 ± 0.01,2.1 ± 0.01,
O=C(NC12CC3CC(CC(C3)C1)C2)C(F)(F)C(F)(F)C(F)(F)C(F)(F)C(F)(F)C(F)(F)C(F)(F)C(F)(F)C(F)(F)C(F)(F)C(F)(F)F [Compound 903],0.01 ± 0.01,0.1 ± 0.01,
O=C(O)CCNC(=O)NC1CCCCC1 [Compound 109],,,"IC50 [1, 9]: 358 ± 2 µM; IC50 ([2]; Table 1, […] enzyme, 5 min preincubation, pH 7.4, 30° C., [S] = 40 μM, means ± SD of three experiments, read-out: IC50 (μM) Mouse sEH): 122 ± 2 µM"
CCCCC(CC)OC(=O)CCCNC(=O)NC12CC3CC(CC(C3)C1)C2 (stereo not drawn) [Compound 905],0.45 ± 0.01,0.13 ± 0.01,
CC(C)=CCC/C(C)=C/COC1CCC(NC(=O)NC23CC4CC(CC(C4)C2)C3)CC1 (stereo not drawn) [Compound 984],,,"IC50 [1, 10]: 0.1 ± 0.01 µM; IC50 [2, 11]: 0.05 ± 0.01 µM"
CS(=O)(=O)NCCCCCCCCCCCCNC(=O)NC12CC3CC(CC(C3)C1)C2 [Compound 901],0.1 ± 0.01,0.07 ± 0.01,
O=C(CCCc1ccccc1)NC1CCCCC1 [Compound 971],1.4 ± 0.01,0.11 ± 0.01,
CCCCCOC(=O)c1ccc(NC(=O)NC23CC4CC(CC(C4)C2)C3)cc1 [Compound 860],,,"IC50 [1, 10]: 0.1 ± 0.01 µM; IC50 [2, 11]: 0.05 ± 0.01 µM"
CCOC(=O)c1ccc(COCCOCCOCCCCCNC(=O)NC23CC4CC(CC(C4)C2)C3)cc1 [Compound 956],0.1 ± 0.01,0.05 ± 0.01,
"O=C(NCCCCCCCCCCCC(=O)OCC12CC3CC(CC(C3)C1)C2)NC12CC3CC(CC(C3)C1)C2 [Compound 786, 1-(1-adamantyl)-3-(11-(1-adamantyl)methyloxycarbonylundecyl)urea]",,,"IC50 ([1]; Table 4, […] enzyme, 5 min preincubation, pH 7.4, 30° C., means ± SD, read-out: IC50 (μM) Human sEH): 0.23 ± 0.02 µM; IC50 ([2]; Table 4, 0.12 μM enzyme, 5 min preincubation, pH 7.4, 30° C., means ± SD, read-out: IC50 (μM) Mouse sEH): 0.07 ± 0.01 µM"
CCOC(=O)c1ccc(C(C#N)OC(=O)CCCNC(=O)NC23CC4CC(CC(C4)C2)C3)cc1 (stereo not drawn) [Compound 947],0.11 ± 0.01,0.07 ± 0.01,
O=C(NCCCC(=O)OCc1ccccc1)NC12CC3CC(CC(C3)C1)C2 [Compound 945],0.19 ± 0.01,0.05 ± 0.01,
O=C(CCCCc1ccccc1)NC1CCCCC1 [Compound 992],1.6 ± 0.01,0.05 ± 0.01,
CCCCCNC(=O)C1CCCC(NC(=O)NC23CC4CC(CC(C4)C2)C3)C1 (stereo not drawn) [Compound 960],,,"IC50 [1, 10]: 0.1 ± 0.01 µM; IC50 [2, 11]: 0.05 ± 0.01 µM"
